# Results from article PMC8151276, “An Integrated Approach toward NanoBRET Tracers for Analysis of GPCR Ligand Engagement” (Molecules, 2021).
# Legend:
# Type in all cases: binding
# GRM3 = biological target: T1, GRM3 (Homo sapiens, UniProt Q14832); experiment: NanoBRET screen HiBiT-GRM3 in HEK293; details: GRM3
# T1 construct: purchased Promega (in-house HiBiT-GPCR construct library, NanoBRET)
# Method: (§1) Each tracer candidate was screened across the entire library of HiBiT-GPCR constructs using NanoBRET as the detection modality. As depicted in Figure 4A, the specificity of interactions was evaluated through decrease in BRET due to competitive displacement of a bound tracer by excess parental compound. Each tracer was analyzed for binding to each HiBiT-GPCR fusion in the absence and in the presence of competing parental compound. Briefly, HEK293 cells were transfected with HiBiT-GPCR constructs diluted into promoterless DNA to reduce expression and maximize translocation to the cell surface. Each tracer candidate was then screened at concentrations of 1 μM and 0.1 μM across cells expressing these fusions. Cells were treated for 1.5 h with tracer either alone or in the presence of 20 μM competing parental compound (i.e., control). BRET was measured upon addition of purified LgBiT and subsequent complementation with HiBiT genetically fused to a GPCR. The specificity of interactions was assessed through a decrease in BRET signal due to competitive displacement of the bound tracer. To further gauge the robustness of these interactions, the fold response over the control (i.e., BRETtracer/BRETcontrol) was calculated. We chose a 1.5-fold response, which translates to ≥7-fold signal over noise as the minimal threshold required to score an interaction as positive. […]. Below we highlight the screening results obtained for our exemplary fluorescent tracers based on Clozapine, Amitriptyline and AZD1283.
# (§2) HiBiT-GPCR DNA constructs were diluted in 10 mM Tris pH 8 to a final concentration of 0.01 μg/μL, arrayed in 96-well plates and stored at −20 °C. For transfection, HEK293 cells were suspended in Opti-MEM (without phenol red) supplemented with 2% fetal bovine serum (Seradigm) and 100 units/mL penicillin–streptomycin (Gibco) at a final concentration of 220,000 cells/mL and dispensed into white 96-well plates at 90 μL/well. Subsequent transfections and screens were carried using an Agilent Bravo Automated Liquid Handling Platform. First, the 96-well HiBiT DNA arrays were diluted 25-fold in Opti-MEM (without serum or phenol red) to a final concentration of 0.0004 μg/μL and 20 μL of the diluted DNAs were transferred into new 96-well plates. Next, promoterless carrier DNA (1 μg/μL) was diluted 25-fold (0.04 μg/μL) and then dispensed into the diluted arrays at 20 μL/well. Following brief mixing, Viafect transfection reagent (Promega) diluted 16-fold into Opti-MEM was dispensed into the plates at 40 μL/well. After mixing by pipetting, plates were incubated for 10 min on the pipetting station deck. The DNA-transfection reagent complexes were then added to plates containing cells. To facilitate the screen, 10 μL of DNA-transfection reagent complexes were added in duplicates to the top 4 and bottom 4 rows, resulting in two identical 48-well arrays per plate. Plates with transfected cells were incubated for 18–20 h at 37 °C/5% CO2. A screen of each tracer across the entire library using two different concentrations requires duplicate plates of transfected cells. Depending on the number of tracers being screened, transfections can be scaled up using the same ratios. The next day, for each tracer, four 20× screening solutions in tracer dilution buffer (Promega) were prepared: two duplicates at final concentration of 20 μM and two duplicates at a final concentration of 2 μM. A competing unmodified compound was added to one of each duplicate at a final concentration of 400 μM. The four resulting solutions were diluted 4-fold in Opti-MEM without serum or phenol red to generate 5× solutions (5 µM and 0.5 µM tracer +/− 100 μM competing compound). To screen the library, a BioTek MultiFlo FX liquid dispenser was used to dispense 22.5 µL of tracer solution to the top 4 rows and 22.5 µL tracer + competing compound solution to the 4 bottom rows. Plates were briefly mixed on an orbital shaker and incubated for 1.5 h at room temperature. […]
# NPBWR2 = biological target: T2, NPBWR2 (Homo sapiens, UniProt P48146); experiment: NanoBRET screen HiBiT-NPBWR2 in HEK293; details: NPBWR2
# T2 construct: purchased Promega (in-house HiBiT-GPCR construct library, NanoBRET)
# T2 sequence (P48146 whole entry): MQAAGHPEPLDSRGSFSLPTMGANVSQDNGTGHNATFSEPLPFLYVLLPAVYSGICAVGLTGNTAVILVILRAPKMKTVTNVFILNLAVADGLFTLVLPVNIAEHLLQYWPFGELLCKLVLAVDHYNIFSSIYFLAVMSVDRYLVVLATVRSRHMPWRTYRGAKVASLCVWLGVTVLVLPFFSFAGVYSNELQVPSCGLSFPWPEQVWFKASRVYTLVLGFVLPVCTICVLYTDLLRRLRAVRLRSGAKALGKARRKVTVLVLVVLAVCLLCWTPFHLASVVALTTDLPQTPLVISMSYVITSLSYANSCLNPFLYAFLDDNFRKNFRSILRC
# Method: as §1, §2
# DRD5 = biological target: T3, DRD5 (Homo sapiens, UniProt P21918); experiment: NanoBRET screen HiBiT-DRD5 in HEK293
# T3 construct: purchased Promega (in-house HiBiT-GPCR construct library, NanoBRET)
# T3 sequence (P21918 whole entry): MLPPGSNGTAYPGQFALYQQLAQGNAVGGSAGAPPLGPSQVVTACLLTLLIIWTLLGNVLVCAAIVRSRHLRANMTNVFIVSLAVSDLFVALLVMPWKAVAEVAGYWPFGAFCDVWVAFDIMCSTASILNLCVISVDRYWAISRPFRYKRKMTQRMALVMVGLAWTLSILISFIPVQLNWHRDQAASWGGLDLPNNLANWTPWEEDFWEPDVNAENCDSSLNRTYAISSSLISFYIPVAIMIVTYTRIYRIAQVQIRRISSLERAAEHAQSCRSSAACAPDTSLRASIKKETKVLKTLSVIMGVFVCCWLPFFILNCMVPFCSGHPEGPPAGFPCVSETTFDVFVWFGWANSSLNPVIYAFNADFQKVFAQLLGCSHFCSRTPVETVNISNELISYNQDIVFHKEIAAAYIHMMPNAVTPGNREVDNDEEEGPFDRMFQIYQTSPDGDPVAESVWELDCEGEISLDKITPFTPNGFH
# Method: as §1, §2
# MLNR = biological target: T4, MLNR (Homo sapiens, UniProt O43193); experiment: NanoBRET screen HiBiT-MLNR in HEK293; details: MLNR
# T4 construct: purchased Promega (in-house HiBiT-GPCR construct library, NanoBRET)
# T4 sequence (O43193 whole entry): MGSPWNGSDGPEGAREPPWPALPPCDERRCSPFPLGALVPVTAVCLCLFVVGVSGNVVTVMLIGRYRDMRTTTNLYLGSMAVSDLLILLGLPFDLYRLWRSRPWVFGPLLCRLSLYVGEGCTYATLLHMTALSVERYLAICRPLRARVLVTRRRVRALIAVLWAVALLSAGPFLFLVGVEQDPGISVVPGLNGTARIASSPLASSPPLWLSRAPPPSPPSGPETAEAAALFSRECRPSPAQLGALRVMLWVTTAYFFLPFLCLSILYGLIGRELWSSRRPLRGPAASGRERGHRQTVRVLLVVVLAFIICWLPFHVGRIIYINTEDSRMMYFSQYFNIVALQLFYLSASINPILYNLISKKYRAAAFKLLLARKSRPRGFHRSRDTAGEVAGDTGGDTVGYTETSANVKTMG
# Method: as §1, §2
# NPFFR2 = biological target: T5, NPFFR2 (Homo sapiens, UniProt Q9Y5X5); experiment: NanoBRET screen HiBiT-NPFFR2 in HEK293; details: NPFFR2
# T5 construct: purchased Promega (in-house HiBiT-GPCR construct library, NanoBRET)
# T5 sequence (Q9Y5X5 whole entry): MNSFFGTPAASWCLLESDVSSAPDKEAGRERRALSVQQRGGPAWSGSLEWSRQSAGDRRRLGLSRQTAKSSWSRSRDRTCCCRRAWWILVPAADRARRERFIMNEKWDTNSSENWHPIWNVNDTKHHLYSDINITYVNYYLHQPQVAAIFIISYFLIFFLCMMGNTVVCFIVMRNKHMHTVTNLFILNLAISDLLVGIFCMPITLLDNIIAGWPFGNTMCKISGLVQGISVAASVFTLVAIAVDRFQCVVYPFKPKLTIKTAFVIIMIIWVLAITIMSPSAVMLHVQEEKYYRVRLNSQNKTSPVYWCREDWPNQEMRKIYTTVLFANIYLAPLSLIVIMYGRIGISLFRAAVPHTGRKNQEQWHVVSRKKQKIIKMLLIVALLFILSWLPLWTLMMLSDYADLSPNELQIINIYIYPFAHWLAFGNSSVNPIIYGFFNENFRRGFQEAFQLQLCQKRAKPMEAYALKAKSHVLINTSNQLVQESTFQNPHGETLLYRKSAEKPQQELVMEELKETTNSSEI
# Method: as §1, §2
# CCR6 = biological target: T6, CCR6 (Homo sapiens, UniProt P51684); experiment: NanoBRET screen HiBiT-CCR6 in HEK293
# T6 construct: purchased Promega (in-house HiBiT-GPCR construct library, NanoBRET)
# T6 sequence (P51684 1-374): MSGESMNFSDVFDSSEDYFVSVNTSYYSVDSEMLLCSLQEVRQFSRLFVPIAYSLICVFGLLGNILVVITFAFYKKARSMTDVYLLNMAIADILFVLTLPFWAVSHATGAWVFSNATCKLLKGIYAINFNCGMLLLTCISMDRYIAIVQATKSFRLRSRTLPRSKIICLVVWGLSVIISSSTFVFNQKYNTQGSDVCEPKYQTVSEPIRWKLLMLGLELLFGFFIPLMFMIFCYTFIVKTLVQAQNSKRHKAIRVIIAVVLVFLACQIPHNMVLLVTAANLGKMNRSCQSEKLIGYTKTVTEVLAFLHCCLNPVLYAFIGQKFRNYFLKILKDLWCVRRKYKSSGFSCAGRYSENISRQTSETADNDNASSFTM
# Method: as §1, §2
# T1 sequence (Q14832 23-879): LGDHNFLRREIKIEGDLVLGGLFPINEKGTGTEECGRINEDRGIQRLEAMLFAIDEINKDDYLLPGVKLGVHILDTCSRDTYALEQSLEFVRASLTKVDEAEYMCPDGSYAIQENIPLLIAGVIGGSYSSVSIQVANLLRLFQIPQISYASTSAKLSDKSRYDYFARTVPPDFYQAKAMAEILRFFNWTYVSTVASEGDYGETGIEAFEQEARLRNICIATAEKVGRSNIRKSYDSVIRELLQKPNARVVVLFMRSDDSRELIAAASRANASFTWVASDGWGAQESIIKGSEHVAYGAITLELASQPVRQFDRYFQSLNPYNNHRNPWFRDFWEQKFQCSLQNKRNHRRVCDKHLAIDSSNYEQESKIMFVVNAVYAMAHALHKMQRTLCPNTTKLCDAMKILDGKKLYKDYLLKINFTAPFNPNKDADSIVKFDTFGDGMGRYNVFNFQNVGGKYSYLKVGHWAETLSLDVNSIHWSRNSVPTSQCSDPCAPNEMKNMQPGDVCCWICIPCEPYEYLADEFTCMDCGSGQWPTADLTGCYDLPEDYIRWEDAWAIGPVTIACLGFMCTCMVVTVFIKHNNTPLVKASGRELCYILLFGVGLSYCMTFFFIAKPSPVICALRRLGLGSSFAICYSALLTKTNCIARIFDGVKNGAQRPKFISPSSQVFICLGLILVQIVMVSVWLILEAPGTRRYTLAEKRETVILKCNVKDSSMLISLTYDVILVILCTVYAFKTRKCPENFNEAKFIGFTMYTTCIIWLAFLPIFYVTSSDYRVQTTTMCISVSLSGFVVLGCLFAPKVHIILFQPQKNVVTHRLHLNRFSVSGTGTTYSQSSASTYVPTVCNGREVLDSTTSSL
compound,measurement,setting,value
O=C(CCc1ccc2n1[B-](F)(F)[N+]1=C(c3ccc[nH]3)C=CC1=C2)NCCOCCOCCNC(=O)OCCOCCN1CCN(C2=Nc3ccccc3Sc3ccccc32)CC1 [Quetiapine-a-2-NB590],NanoBRET Fold Response,GRM3; tracer 0.1μM,1.08
same,NanoBRET Fold Response,GRM3; tracer 1μM,1.09
same,NanoBRET Fold Response,NPBWR2; tracer 0.1μM,0.97
same,NanoBRET Fold Response,NPBWR2; tracer 1μM,1.09
same,NanoBRET Fold Response,"DRD5; DRD5, tracer 0.1μM",1.09
same,NanoBRET Fold Response,"DRD5; DRD5, tracer 1μM",1.43
same,NanoBRET Fold Response,MLNR; tracer 0.1μM,1.02
same,NanoBRET Fold Response,MLNR; tracer 1μM,0.86
same,NanoBRET Fold Response,NPFFR2; tracer 0.1μM,0.99
same,NanoBRET Fold Response,NPFFR2; tracer 1μM,0.97
same,NanoBRET Fold Response,"CCR6; CCR6, tracer 0.1μM",1.05
same,NanoBRET Fold Response,"CCR6; CCR6, tracer 1μM",0.95
Cc1cc2c(s1)Nc1ccccc1N=C2N1CCN(CCCNC(=O)CCOCCOCCOCCOCCNC(=O)CCc2ccc3n2[B-](F)(F)[N+]2=C(c4ccc[nH]4)C=CC2=C3)CC1 [Olanzapine-a-2-NB590],NanoBRET Fold Response,GRM3; tracer 0.1μM,1.02
same,NanoBRET Fold Response,GRM3; tracer 1μM,1.02
same,NanoBRET Fold Response,NPBWR2; tracer 0.1μM,0.98
same,NanoBRET Fold Response,NPBWR2; tracer 1μM,1.02
same,NanoBRET Fold Response,"DRD5; DRD5, tracer 0.1μM",1.20
same,NanoBRET Fold Response,"DRD5; DRD5, tracer 1μM",2.53
same,NanoBRET Fold Response,MLNR; tracer 0.1μM,1.27
same,NanoBRET Fold Response,MLNR; tracer 1μM,1.15
same,NanoBRET Fold Response,NPFFR2; tracer 0.1μM,0.98
same,NanoBRET Fold Response,NPFFR2; tracer 1μM,1.04
same,NanoBRET Fold Response,"CCR6; CCR6, tracer 0.1μM",1.00
same,NanoBRET Fold Response,"CCR6; CCR6, tracer 1μM",1.21
CN1CCN(C2=Nc3cc(Cl)ccc3Nc3ccc(CNC(=O)CCOCCOCCOCCOCCNC(=O)CCc4ccc5n4[B-](F)(F)[N+]4=C(c6ccc[nH]6)C=CC4=C5)cc32)CC1 [Clozapine-b-2-NB590],NanoBRET Fold Response,GRM3; 0.1μM tracer,0.99
same,NanoBRET Fold Response,NPBWR2; 0.1μM tracer,0.99
same,NanoBRET Fold Response,NPBWR2; 1μM tracer,1.08
same,NanoBRET Fold Response,"DRD5; DRD5, 0.1μM tracer",1.01
same,NanoBRET Fold Response,"DRD5; DRD5, 1μM tracer",1.83
same,NanoBRET Fold Response,MLNR; 0.1μM tracer,1.02
same,NanoBRET Fold Response,MLNR; 1μM tracer,1.41
same,NanoBRET Fold Response,NPFFR2; 0.1μM tracer,1.02
same,NanoBRET Fold Response,NPFFR2; 1μM tracer,1.00
same,NanoBRET Fold Response,"CCR6; CCR6, 0.1μM tracer",1.03
same,NanoBRET Fold Response,"CCR6; CCR6, 1μM tracer",0.97
CN(CCC=C1c2ccccc2CCc2ccccc21)C(=O)CCOCCOCCOCCOCCNC(=O)CCc1ccc2n1[B-](F)(F)[N+]1=C(c3ccc[nH]3)C=CC1=C2 [Amitriptyline-e-2-NB590],NanoBRET Fold Response,DRD5; tracer at 1μM,1.11
same,NanoBRET Fold Response,CCR6; tracer at 1μM,1.00
O=C(CCc1ccc2n1[B-](F)(F)[N+]1=C(c3ccc[nH]3)C=CC1=C2)NCc1ccc(C(=O)NCCOCCOCCNCC(O)COc2cccc3ccccc23)cc1 (stereo not shown) [Propranolol-3-NB590],NanoBRET Fold Response,GRM3; 0.1μM,1.02
same,NanoBRET Fold Response,GRM3; 1μM,0.95
same,NanoBRET Fold Response,NPBWR2; 0.1μM,1.05
same,NanoBRET Fold Response,NPBWR2; 1μM,1.05
same,NanoBRET Fold Response,"DRD5; DRD5, 0.1μM",1.03
same,NanoBRET Fold Response,"DRD5; DRD5, 1μM",1.00
same,NanoBRET Fold Response,MLNR; 0.1μM,1.01
same,NanoBRET Fold Response,MLNR; 1μM,1.02
same,NanoBRET Fold Response,NPFFR2; 0.1μM,1.01
same,NanoBRET Fold Response,NPFFR2; 1μM,1.01
same,NanoBRET Fold Response,"CCR6; CCR6, 0.1μM",0.95
same,NanoBRET Fold Response,"CCR6; CCR6, 1μM",1.02
